Legend:
[1] = target: T1, Serine/threonine-protein kinase Nek9 (Homo sapiens) (UniProt Q8TD19); assay: Selectivity interaction (ActivX KiNativ screen (kinase selectivity in THP-1 cell lysates)) EUB0000639a NEK9; assay type: subcellular; settings: lysate
T1 sequence (whole entry): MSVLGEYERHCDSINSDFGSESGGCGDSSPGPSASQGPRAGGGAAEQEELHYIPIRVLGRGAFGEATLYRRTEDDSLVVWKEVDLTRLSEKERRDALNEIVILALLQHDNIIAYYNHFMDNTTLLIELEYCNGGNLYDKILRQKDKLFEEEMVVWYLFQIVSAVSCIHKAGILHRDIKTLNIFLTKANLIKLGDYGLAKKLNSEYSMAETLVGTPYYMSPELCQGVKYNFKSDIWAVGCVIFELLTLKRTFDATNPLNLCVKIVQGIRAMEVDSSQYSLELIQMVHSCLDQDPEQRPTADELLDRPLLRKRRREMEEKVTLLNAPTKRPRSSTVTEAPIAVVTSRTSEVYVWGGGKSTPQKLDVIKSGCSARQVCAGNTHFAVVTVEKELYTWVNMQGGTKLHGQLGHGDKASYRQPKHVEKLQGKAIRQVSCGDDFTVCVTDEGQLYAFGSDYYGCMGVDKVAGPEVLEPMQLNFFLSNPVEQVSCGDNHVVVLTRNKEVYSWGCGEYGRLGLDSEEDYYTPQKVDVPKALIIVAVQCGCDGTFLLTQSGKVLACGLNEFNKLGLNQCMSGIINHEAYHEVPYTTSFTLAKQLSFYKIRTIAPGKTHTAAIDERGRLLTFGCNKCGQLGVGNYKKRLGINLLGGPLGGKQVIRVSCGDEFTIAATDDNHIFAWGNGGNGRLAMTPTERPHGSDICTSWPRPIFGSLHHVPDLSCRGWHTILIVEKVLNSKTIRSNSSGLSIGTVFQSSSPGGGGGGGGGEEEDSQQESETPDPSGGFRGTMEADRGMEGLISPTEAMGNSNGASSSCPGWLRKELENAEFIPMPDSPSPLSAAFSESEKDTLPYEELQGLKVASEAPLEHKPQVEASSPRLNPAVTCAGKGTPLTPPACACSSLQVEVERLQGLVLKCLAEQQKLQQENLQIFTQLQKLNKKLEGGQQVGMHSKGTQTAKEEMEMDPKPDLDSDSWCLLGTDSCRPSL

[2] = target: T2, Serine/threonine-protein kinase 36 (Homo sapiens) (UniProt Q9NRP7); assay: Selectivity interaction (KinomeScan (DiscoverX)) EUB0000045b STK36
T2 sequence (whole entry): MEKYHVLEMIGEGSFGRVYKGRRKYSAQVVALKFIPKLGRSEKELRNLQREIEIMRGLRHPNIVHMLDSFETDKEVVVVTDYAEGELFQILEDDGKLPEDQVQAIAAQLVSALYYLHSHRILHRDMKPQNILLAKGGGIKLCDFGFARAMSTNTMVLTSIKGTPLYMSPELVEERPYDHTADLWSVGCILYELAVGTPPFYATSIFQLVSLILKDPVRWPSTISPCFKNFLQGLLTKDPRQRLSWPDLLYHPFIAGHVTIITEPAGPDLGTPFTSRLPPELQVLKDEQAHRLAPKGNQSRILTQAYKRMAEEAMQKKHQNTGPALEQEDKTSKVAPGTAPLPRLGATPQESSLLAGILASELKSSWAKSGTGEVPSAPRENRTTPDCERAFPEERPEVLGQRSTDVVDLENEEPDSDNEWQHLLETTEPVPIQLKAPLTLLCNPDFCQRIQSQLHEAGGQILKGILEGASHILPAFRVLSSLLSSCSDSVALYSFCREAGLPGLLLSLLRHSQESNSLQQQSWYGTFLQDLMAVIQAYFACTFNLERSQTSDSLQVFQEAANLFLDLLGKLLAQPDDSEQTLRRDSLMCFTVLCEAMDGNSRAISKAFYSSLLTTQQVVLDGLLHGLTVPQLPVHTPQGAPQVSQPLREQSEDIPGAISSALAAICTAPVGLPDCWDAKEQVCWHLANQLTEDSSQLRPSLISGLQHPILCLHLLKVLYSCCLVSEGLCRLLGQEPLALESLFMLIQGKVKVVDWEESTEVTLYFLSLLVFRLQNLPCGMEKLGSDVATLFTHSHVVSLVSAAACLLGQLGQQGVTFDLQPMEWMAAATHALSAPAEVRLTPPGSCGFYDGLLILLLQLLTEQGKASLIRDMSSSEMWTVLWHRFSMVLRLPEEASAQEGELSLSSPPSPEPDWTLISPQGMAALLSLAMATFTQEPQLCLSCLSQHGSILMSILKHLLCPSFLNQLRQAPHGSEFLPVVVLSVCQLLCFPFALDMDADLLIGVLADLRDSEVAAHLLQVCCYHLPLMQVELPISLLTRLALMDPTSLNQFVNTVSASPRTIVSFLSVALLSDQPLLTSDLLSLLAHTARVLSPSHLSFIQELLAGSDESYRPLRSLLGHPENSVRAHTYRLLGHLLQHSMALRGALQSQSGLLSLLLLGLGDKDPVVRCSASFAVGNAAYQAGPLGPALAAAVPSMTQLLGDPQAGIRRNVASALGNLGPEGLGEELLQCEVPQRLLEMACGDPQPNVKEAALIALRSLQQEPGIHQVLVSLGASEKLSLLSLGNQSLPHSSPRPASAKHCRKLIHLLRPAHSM

SMILES	% of inhibition ([1]; at 0.01 µM)	% of inhibition ([1]; at 0.04 µM)	% of inhibition ([1]; at 0.2 µM)	% of inhibition ([1]; at 1 µM)	% of inhibition ([1]; at 5 µM)	% of control ([2]; at 1 µM)	% of control ([2]; at 10 µM)
CC[C@@H]1[C@H](F)C(=O)N[C@@H]1COc1nccc2cc(C(N)=O)c(OC)cc12 [ZIMLOVISERTIB]	0.3%	-3.6%	-11.2%	7.7%	0.4%	–	–
C=CC(=O)Nc1cc(-n2c(=O)ccc3cnc4ccc(-c5ccc(NS(C)(=O)=O)cc5)cc4c32)ccc1C	–	–	–	–	–	100%	100%
